Target: T1, human recombinant, purified wild type His-B-Raf protein kinase (Homo sapiens, UniProt P15056)
T1 construct: His
Experiment: B-Raf In Vitro ELISA Assay
Type: biochemical
Details: phosphorylation of MEK1; 2.5 nM B-Raf, 0.15 μM MEK1, 10 μM ATP
Experimental: B-Raf In Vitro ELISA Assay
Activity of human recombinant, purified wild type His-B-Raf protein kinase was determined in vitro using an enzyme-linked immunosorbent assay (ELISA) assay format, which measures phosphorylation of the B-Raf substrate, human recombinant, purified His-derived (detagged) MEK1. The reaction utilized 2.5 nM B-Raf, 0.15 μM MEK1 and 10 μM adenosine triphosphate (ATP) in 40 mM N-(2-hydroxyethyl)piperazine-N′-(2-ethanesulfonic acid hemisodium salt (HEPES), 5 mM 1,4-dithio-DL-threitol (DTT), 10 mM MgCl2, 1 mM ethylenediaminetetraacetic acid (EDTA) and 0.2M NaCl (1×HEPES buffer), with or without compound at various concentrations, in a total reaction volume of 25 μl in 384 well plates. B-Raf and compound were preincubated in 1×HEPES buffer for 1 hour at 25° C. Reactions were initiated with addition of MEK1 and ATP in 1×HEPES buffer and incubated at 25° C. for 50 minutes and reactions stopped by addition of 10 μl 175 mM EDTA (final concentration 50 mM) in 1×HEPES buffer. 5 μl of the assay mix was then diluted 1:20 into 50 mM EDTA in 1×HEPES buffer, transferred to 384 well black high protein binding plates and incubated for 12 h at 4° C. Plates were washed in tris buffered saline containing 0.1% Tween20 (TBST), blocked with 50 μl Superblock (Pierce) for 1 hour at 25° C., washed in TBST, incubated with 50 μl rabbit polyclonal anti-phospho-MEK antibody (Cell Signaling) diluted 1:1000 in TBS for 2 h at 25° C., washed with TBST, incubated with 50 μl goat anti-rabbit horseradish peroxidase-linked antibody (Cell Signaling) diluted 1:2000 in TBS for 1 hour at 25° C. and washed with TBST. 50 μl of fluorogenic peroxidase substrate (Quantablu—Pierce) was added and following incubation for 45-60 mins, 50 μl QuantabluSTOP (Pierce) was added. Blue fluorescent product was detected at excitation 325 nm and emission 420 nm using a TECAN Ultra plate reader. Data was graphed and IC50s calculated using Excel Fit (Microsoft).

T1 sequence (P15056 whole entry): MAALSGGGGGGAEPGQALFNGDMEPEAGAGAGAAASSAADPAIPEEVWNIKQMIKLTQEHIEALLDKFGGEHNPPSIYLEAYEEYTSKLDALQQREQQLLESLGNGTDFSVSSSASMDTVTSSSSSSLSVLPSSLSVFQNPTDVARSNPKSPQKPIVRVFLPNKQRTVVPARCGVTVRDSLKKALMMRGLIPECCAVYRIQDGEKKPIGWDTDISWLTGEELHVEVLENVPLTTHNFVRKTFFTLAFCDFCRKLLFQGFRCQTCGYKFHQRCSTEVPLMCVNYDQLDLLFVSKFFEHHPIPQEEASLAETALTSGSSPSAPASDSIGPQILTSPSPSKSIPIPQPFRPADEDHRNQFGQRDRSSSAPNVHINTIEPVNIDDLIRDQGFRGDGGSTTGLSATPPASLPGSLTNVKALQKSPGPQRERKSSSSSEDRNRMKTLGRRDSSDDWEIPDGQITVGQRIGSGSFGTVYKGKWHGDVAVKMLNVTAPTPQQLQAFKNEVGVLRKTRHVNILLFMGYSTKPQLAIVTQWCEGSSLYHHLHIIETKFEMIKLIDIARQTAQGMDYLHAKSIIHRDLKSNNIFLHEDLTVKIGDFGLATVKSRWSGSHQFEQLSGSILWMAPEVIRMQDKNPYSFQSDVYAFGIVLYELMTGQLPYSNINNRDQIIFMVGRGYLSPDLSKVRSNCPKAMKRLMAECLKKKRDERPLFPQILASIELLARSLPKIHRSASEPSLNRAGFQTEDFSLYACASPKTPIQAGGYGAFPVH

IC50 [µM] | Compound
0.347 | Cc1ccc(NC(=O)c2cccc(C(C)(C)C#N)c2)cc1Nc1ccc2ncn(CCCN3CCOCC3)c(=O)c2c1 [Example 7, 3-(1-Cyano-1-methylethyl)-N-(4-methyl-3-{[3-(3-morpholin-4-ylpropyl)-4-oxo-3,4-dihydroquinazolin-6-yl]amino}phenyl)-benzamide]
1.93 | Cc1ccc(NC(=O)c2cccc(C(C)(C)C#N)c2)cc1N(C)c1ccc2ncn(C)c(=O)c2c1 [Example 33, 3-(Cyano-dimethyl-methyl)-N-{4-methyl-3-[methyl-(3-methyl-4-oxo-3,4-dihydro-quinazolin-6-yl)-amino]-phenyl}-beazamide]
0.186 | Cc1nc2ccc(Nc3cc(NC(=O)c4cccc(C(C)(C)C#N)c4)ccc3C)cc2c(=O)[nH]1 [Example 4, 3-(1-Cyano-1-methylethyl)-N-{4-methyl-3-[(2-methyl-4-oxo-3,4-dihydroquinazolin-6-yl)amino]phenyl}-benzamide]

From patent US20090118261A1, “QUINAZOLINONE DERIVATIVES AND THEIR USE AS B-RAF INHIBITORS” (ASTRAZENECA AB, priority 2004, published 2009)
